These results are taken from US20090281054A1, “COMPOSITIONS AND METHODS COMPRISING CAPURAMYCIN ANALOGUES” (priority 2008, published 2009).

≈ marks a conversion by molar mass, not a printed value. Where two headings read alike, the source gives them in different places.

A short description of one data set: in vitro. The data set is classed as cell-based. The note with it: mouse. As to the method:
(§1) The SQ997 amino acid derivatives shown in Table 2 were tested for in vitro activity against MTB, cytotoxicity for uninfected J774 cells to determine IC50, and for intracellular activity in the macrophage assay (Table 15). […] Cell viability remained similar to SQ997, or slightly better as cell morphologic changes were reduced.

The test system of a further data set is MTB H37Rv. Briefly: MIC by broth microdilution. The data set is classed as cell-based. The note with it: Mycobacterium tuberculosis. The procedure: as §1
In data set [1] the test system is M. smegmatis (MSMG; MC2155). Briefly: MIC by microdilution method in 7H9 broth. It is filed as cell-based. As to conditions: MSMG MC^2155, 72 hr.
The test system of data set [2] is M. abscessus (MAB; ATCC 700869). The experiment in a line: MIC by microdilution method in 7H9 broth. It is filed as cell-based. As to conditions: MAB 700869.
For data set [3], the system named is M. kansaii (MKN; ATCC12478 & 35775). The experiment in a line: MIC by microdilution method in 7H9 broth. The data set is classed as cell-based, M. kansasii.
The test system of a further data set is M. avium complex (MAC). Briefly: MIC by microdilution method in 7H9 broth. The note with it: for MIC90: value in square brackets. It is filed as cell-based.
The subject of a further data set is M. abscessus. Briefly: Synergy by checkerboard titration (microdilution). It is filed as cell-based.
The subject of the next data set is MTB in J774 cells. Briefly: Intracellular activity of amino acid conjugates. The data set is classed as cell-based, Mycobacterium tuberculosis. As to conditions: day 0 RLU 775, Control day 7 31700. The procedure: The amino acid conjugates were tested at concentrations of 4 mg/mL and 8 mg/mL compared with a control and isoniazid (INH).
The intracellular activity against MTB by capuramycin amino acid derivatives was tested. Cells J774 were infected with MTB and treated for 7 days with the amino acid derivative. The mean Relative Light Unites (RLU), an estimation of bacterial viability, was measured as described in Snewin et al., Infect. Immun., 1999, 67(9), 4586-4593).

In a further data set the test system is MAC. Briefly: Synergy by checkerboard titration (microdilution). As to conditions: for MIC Combination: combination SQ641 + EMB; for MIC: Mycobacterium avium, drug alone. The data set is classed as cell-based, M. avium complex.
The test system of another data set is M. smegmatis. The experiment in a line: Synergy by checkerboard titration (microdilution). The data set is classed as cell-based. As to conditions: M. smegmatis.
Data set [4] concerns MTB-pSMT1 luciferase reporter strain. Briefly: Activity against slowly replicating (hypoxic) MTB. The data set is classed as cell-based. The note with it: Mycobacterium tuberculosis.

`CO[C@H]1[C@@H](OC(=O)[C@@H](N)C(C)C)[C@H](N2C=CC(=O)NC2)O[C@@H]1[C@@H](OC1OC(C(=O)N[C@H]2CCC[C@@H](C)NC2=O)=C[C@H](O)[C@@H]1O)C(N)=O` (stereo partly drawn) [Compound 997-L-Val]: the IC50 in “in vitro” is greater than 32 µg/mL. The molecule further showed an MIC with MTB H37Rv of 12.5 µg/mL (≈ 18.7 µM).

For the molecule `CO[C@H]1/C=C/O[C@@]2(C)Oc3c(C)c(O)c4c(c3C2=O)C2=NC3(CCN(CC(C)C)CC3)NC2=C(NC(=O)/C(C)=C\C=C\[C@H](C)[C@H](O)[C@@H](C)[C@@H](O)[C@@H](C)[C@H](OC(C)=O)[C@@H]1C)C4=O` [RFB, reference compound], the minimum inhibitory concentration (MIC) in data set [1] was 0.25 µg/mL (≈ 0.295 µM); in [2], 2 µg/mL (≈ 2.36 µM); in data set [3] (MKN ATCC12478), “≦0.0039 μg/ml”; in data set [3] (MKN ATCC35775), “≦0.031 μg/ml”. Moreover, the “MIC range” value against M. avium complex (MAC) (MAC isolates, 2 wk) was in the range of 0.0078 to 0.125 µg/mL. Moreover, the MIC90 against M. avium complex (MAC) (MAC isolates) came out at 0.062 µg/mL (≈ 0.0732 µM). The “MIC Combination” value in the data set on M. abscessus (combination SQ641 + RFB) was 0.25 µg/mL. Further, in the data set with M. abscessus (drug alone), the “MIC Alone” value was 2.0 µg/mL.

With `CCCCCCCCCC(=O)O[C@@H]1[C@H](OC)[C@@H]([C@@H](OC2OC(C(=O)N[C@H]3CCC[C@@H](C)NC3=O)=C[C@H](OC(=O)CCOCCOCCOCCOCCN)[C@@H]2O)C(N)=O)O[C@H]1n1ccc(=O)[nH]c1=O` (stereo partly shown) [SQ641-topdec], the “Mean RLU on day 7” value in the data set with MTB in J774 cells (4 μg/ml) is 3368 RLU; with MTB in J774 cells (8 μg/ml), 2143 RLU.

For `CCCCCCCCCC(=O)O[C@@H]1[C@H](OC)[C@@H]([C@@H](OC2OC(C(=O)N[C@H]3CCC[C@@H](C)NC3=O)=C[C@H](OC(=O)CCCCCCCCCCN)[C@@H]2O)C(N)=O)O[C@H]1n1ccc(=O)[nH]c1=O` (stereo partly shown) [SQ641-aua], the “Mean RLU on day 7” value stood at 3163 RLU in the data set on MTB in J774 cells (4 μg/ml) and 372 RLU in the data set with MTB in J774 cells (8 μg/ml).

In the case of `CC[C@@H](CO)NCCN[C@@H](CC)CO` [EMB, ethambutol, reference compound], the MIC in data set [1] (Mycolicibacterium smegmatis, MC2155|MC^2155, read-out: MIC) was 0.5 µg/mL (≈ 2.45 µM); in data set [2] (Mycobacteroides abscessus, ATCC700869, read-out: MIC), greater than 32 µg/mL; in [3] (Mycobacterium kansasii, ATCC 12478 / ATCC 35775, MKN ATCC35775, read-out: MIC) it was 1 µg/mL (≈ 4.89 µM); in [3] (Mycobacterium kansasii, MKN ATCC12478, read-out: MIC) it was 2 µg/mL (≈ 9.79 µM); with M. avium complex (MAC) (Mycobacterium avium, 336 h, MAC isolates, 2 wk, read-out: MIC (range)), 0.5 to 32 µg/mL (≈ 2.45 to 157 µM); in the data set on M. avium complex (MAC) (Mycobacterium avium, MAC strain 100, read-out: MIC), 4 µg/mL (≈ 19.6 µM). The MIC with M. avium complex (MAC) (Mycobacterium avium, MAC strain 101, read-out: MIC) stood at 1 µg/mL (≈ 4.89 µM); in the data set with M. avium complex (MAC) (Mycobacterium avium, MAC strain 104, read-out: MIC), 2 µg/mL (≈ 9.79 µM); with M. avium complex (MAC) (Mycobacterium avium, MAC strain 109, read-out: MIC), 0.5 µg/mL (≈ 2.45 µM); in the data set with M. avium complex (MAC) (Mycobacterium avium, MAC strain A5, read-out: MIC), 1 µg/mL (≈ 4.89 µM); in the data set with M. avium complex (MAC) (Mycobacterium avium, MAC strain JSH1, read-out: MIC), 16 µg/mL (≈ 78.3 µM); in the data set on M. avium complex (MAC) (Mycobacterium avium, MAC strain NIH C1-1, read-out: MIC) it was 4 µg/mL (≈ 19.6 µM). Also, the minimal inhibitory concentration (MIC) turned out to be 2 µg/mL (≈ 9.79 µM) in the data set with M. avium complex (MAC) (Mycobacterium avium, MAC strain NIH C1-2, read-out: MIC); 32 µg/mL (≈ 157 µM) with M. avium complex (MAC) (Mycobacterium avium, MAC strain NIH C1-3, read-out: MIC); 2 µg/mL (≈ 9.79 µM) in the data set with M. avium complex (MAC) (Mycobacterium avium, MAC strain NIH C1-4, read-out: MIC); 1 µg/mL in the data set on MAC (MAC A5); 32 µg/mL in the data set with MAC (MAC JSH1); 8 µg/mL in the data set on MAC (MAC NIH C1-1). The MIC in the data set with M. smegmatis (Mycolicibacterium smegmatis, drug alone) turned out to be 0.5 µg/mL; in data set [4], 2 µg/mL (≈ 9.79 µM); in data set [4] (Hypoxic, […]), 32 µg/mL (≈ 157 µM). Further, the MIC90 in the data set on M. avium complex (MAC) (Mycobacterium avium, MAC isolates, read-out: MIC90) came out at 16 µg/mL (≈ 78.3 µM). The “MIC Combination” value was 0.062 µg/mL in the data set with MAC (MAC A5), 8.0 µg/mL with MAC (MAC JSH1), 2.0 µg/mL with MAC (MAC NIH C1-1) and 0.12 µg/mL in the data set on M. smegmatis (combination SQ641 + EMB).
